Structures can show the parent of a compound that is named as a salt. Where two headings read alike, the source gives them in different places. Bounds are passed on as bounds.

Data set [1] deals with DMS 273 small cell lung cancer. The experiment in a line: Cytotoxicity, DMS 273. As to conditions: read-out: cytotoxicity GI50, DMS 273; 50% growth inhibition; average of two determinations; 8640 min.
Data set [2] deals with tubulin. The data set is described as follows: Inhibition of tubulin polymerization (turbidimetry). Format: biochemical, bovine.
In data set [3] the test system is A-549 lung carcinoma. The experiment in a line: MTT cytotoxicity assay, A-549. The following applies: for IC50: Homo sapiens, A549, […], read-out: Cytotoxicity ED50, A-549.
Data set [4] has as its system five cancer cell cultures. The data set is described as follows: MTT cytotoxicity assay, five cancer cell cultures taken together. The following applies: for cytotoxicity (in words): five cancer cell lines; for less cytotoxic than 8a / cytotoxicity reduced: relative to 8a. On the technique in general: Tetrazolium dyes change colour on reduction, which living cells bring about.

The test system of data set [5] is HT-29 colon adenocarcinoma. The experiment in a line: MTT cytotoxicity assay, HT-29. The following applies: for IC50: Homo sapiens, HT-29, […], read-out: Cytotoxicity ED50, HT-29.
Data set [6] deals with MLM melanoma. The data set is described as follows: MTT cytotoxicity assay, MLM. As to conditions: for IC50: read-out: Cytotoxicity ED50, MLM.
Data set [7] deals with SKMEL-5 melanoma. The experiment in a line: MTT cytotoxicity assay, SKMEL-5. As to conditions: for IC50: Homo sapiens, SK-MEL-5, […], read-out: Cytotoxicity ED50, SKMEL-5.
Data set [8] deals with MCF-7 breast carcinoma. The data set is described as follows: MTT cytotoxicity assay, MCF-7. The following applies: for IC50: Homo sapiens, MCF7, […], read-out: Cytotoxicity ED50, MCF-7.
The subject of data set [9] is tubulin. The experiment in a line: Inhibition of [3H]colchicine binding to tubulin (DEAE-filter). Set-up: species or system bovine. As to conditions: 1 μM tubulin, 5 μM [3H]colchicine, 5 μM inhibitor, 10 min, 37° C.
Where [10] appears, read: read-out: cytotoxicity ED50, A-549, MCF-7, HT-29, and SKMEL-5 cell cultures.
The mark [11] stands for this setting: second series (Tables V-VII, IX), read-out: Inhibition of Tubulin Polymerization IC50 (±S.D.).
Where [12] appears, read: first series (Table VIII and text), 37° C., 20 min, read-out: Tubulin polymerization IC50 (±S.D.).

By GI50 is commonly meant the concentration giving 50% growth inhibition. In the case of `COc1cc(CNc2ccc(C(C)C)cc2)cc(OC)c1OC` [110f, 4-Isopropyl-N-(3,4,5-trimethoxybenzyl)aniline Hydrochloride], the concentration for 50% growth inhibition (GI50) in data set [1] came to 12.9 µM. For the same molecule, in data set [2] (Table X, different glutamate preparation (1M monosodium glutamate and GTP), read-out: inhibn of tubulin polymn IC50 (±SD)), the IC50 was greater than 40 µM.

As for `COC(=O)/C(=C/c1ccc(OC)cc1)c1cc(OC)c(OC)c(OC)c1` [compound 24a, (E)-Methyl 3-(4-methoxyphenyl)-2-(3,4,5-trimethoxyphenyl)-prop-2-enoate], the IC50 in [3] is 0.011 µM; in data set [4] (setting [10]) it was 0.0064 to 0.05 µM; in [5], 0.0095 µM; in data set [2] (setting [11]) it was greater than 40 µM; in data set [6], 9.6 µM; in data set [7], 0.0064 µM. In addition, the IC50 in data set [8] turned out to be 0.02 µM.

In the case of `CCCOc1ccc(CCc2cc(OC)c(OC)c(OC)c2)cc1` [17b, 1-(4-n-Propoxyphenyl)-2-(3,4,5-trimethoxyphenyl)ethane], the IC50 in data set [3] is 7.2 µM; in [5], 6.4 µM; in data set [2] (setting [11]), greater than 40 µM; in data set [6], 15 µM; in data set [7] it was 6.7 µM; in data set [8] it was 3.9 µM. Besides, in [4], the “cytotoxicity (in words)” value is listed as “decreased cytotoxicity”.

In the case of `COc1cc(CCc2ccc(OCCN(C)C)cc2)cc(OC)c1OC` [17f], the IC50 in [3] is greater than 25 µM; in [5], 9.8 µM; in data set [2] (setting [11]), greater than 40 µM; in data set [6], greater than 25 µM; in data set [7] it was 11.4 µM; in [8], 10.3 µM. The “cytotoxicity (in words)” value in data set [4] is given as “decreased cytotoxicity”.

Take `COC(=O)C(Cc1cc(OC)c(OC)c(OC)c1)c1ccc(OC)cc1` (centres unmarked) [compound 17j, Methyl 2-(4-methoxyphenyl)-3-(3,4,5-trimethoxyphenyl)n-proponate]: the IC50 was greater than 25 µM in [3]; greater than 25 µM in data set [4] (read-out: cytotoxicity ED50, five cancer cell lines); greater than 25 µM in data set [5]; greater than 40 µM in [2] (setting [11]); greater than 25 µM in data set [6]; greater than 25 µM in [7]. Besides, the IC50 in data set [8] was greater than 25 µM.

For the molecule `COc1cc(/C=C/c2ccc(N(C)C)cc2)cc(OC)c1OC` [compound 6n, (E)-1-[4-(N,N-Dimethylamino)phenyl]-2-(3,4,5-trimethoxyphenyl)ethene], the IC50 was 0.0061 µM in data set [3]; less than 1 µM in data set [4] (read-out: cytotoxicity ED50, in at least three cell lines); 0.0069 µM in data set [5]; greater than 50 µM in data set [2] (setting [12]); 0.0125 µM in data set [6]; 0.0046 µM in [7]. Further, the IC50 in data set [8] was 0.082 µM. Further, the “inhibition of tubulin polymerization (in words)” value in data set [2] is “neither trans stilbene was able to significantly inhibit tubulin polymerization”.

`CNC(=O)/C(=C/c1ccc(OC)cc1)c1cc(OC)c(OC)c(OC)c1` [compound 24c, (E)-N-Methyl-[3-(4-methoxyphenyl)-2-(3,4,5-trimethoxyphenyl)]-prop-2-enoamide]: the IC50 in data set [3] was 0.024 µM; in [4] (setting [10]), 0.0064 to 0.05 µM; in data set [5] it was 0.026 µM; in data set [2] (setting [11]), 35 µM; in data set [6], 9.3 µM; in data set [7] it was 0.024 µM. Also, in data set [8], the IC50 turned out to be 0.05 µM.

On to `CCN(CC)CCOc1ccc(CCc2cc(OC)c(OC)c(OC)c2)cc1` [17g], for which the IC50 was 6.8 µM in [3]; 5.2 µM in data set [5]; greater than 40 µM in data set [2] (setting [11]); greater than 25 µM in [6]; 8.5 µM in data set [7]; 4.3 µM in data set [8]. Also, the “cytotoxicity (in words)” value in [4] is given as “decreased cytotoxicity”.

With `CCNC(=O)/C(=C/c1ccc(OC)cc1)c1cc(OC)c(OC)c(OC)c1` [compound 24d, (E)-N-Ethyl-[3-(4-methoxyphenyl)-2-(3,4,5-trimethoxyphenyl)]-prop-2-enoamide], the IC50 in data set [3] was 3.4 µM; in data set [5] it was 1.8 µM; in data set [2] (setting [11]), greater than 40 µM; in [6], greater than 25 µM; in data set [7], 7.05 µM; in [8], 3.7 µM. Moreover, the “cytotoxicity (in words)” value in [4] is “did not show considerable cytotoxicity”.

With `CCN(CC)CCOC(=O)/C(=C/c1cccc(OC)c1)c1cc(OC)c(OC)c(OC)c1` [24f, (E)-(2-N,N-Diethylamino)ethyl-3-(3-methoxyphenyl)-2-(3,4,5-trimethoxyphenyl)-prop-2-enoate], the IC50 in data set [3] was 7.7 µM; in [5] it was greater than 25 µM; in [2] (setting [11]), greater than 40 µM; in data set [6] it was greater than 25 µM; in data set [7], 6.7 µM; in data set [8], 10.4 µM. The “cytotoxicity (in words)” value in data set [4] is “did not show considerable cytotoxicity”.

Consider `COc1cc([C@@H]2c3cc4c(cc3[C@H](O)[C@H]3COC(=O)[C@H]23)OCO4)cc(OC)c1OC` [Podophyllotoxin, reference compound], for which the “Colchicine binding % inhibition” value in data set [9] worked out at 88%. In addition, the IC50 was found to be […] in data set [2] (Table X footnote b, different glutamate preparation, read-out: tubulin polymerization IC50, standard agents) and […] in data set [2] (setting [12]).

Take `CCN(CC)CCOC(=O)/C(=C/c1ccc(OC)cc1)c1cc(OC)c(OC)c(OC)c1` [24e, (E)-(2-N,N-Diethylamino)ethyl-3-(4-methoxyphenyl)-2-(3,4,5-trimethoxyphenyl)-prop-2-enoate]: the IC50 was 1.8 µM in data set [3]; 2.8 µM in data set [5]; greater than 40 µM in [2] (setting [11]); greater than 25 µM in [6]; 2.7 µM in [7]; 2.1 µM in [8]. The “cytotoxicity (in words)” value in data set [4] is given as “did not show considerable cytotoxicity”.

With `COc1ccc(C(O)c2cc(OC)c(OC)c(OC)c2)cc1` (centres unmarked) [compound 28, 4-Methoxyphenyl-(3,4,5-trimethoxyphenyl)methanol], the IC50 in data set [3] was 1.5 µM; in data set [5] it was 1.2 µM; in data set [2] (setting [11]), greater than 40 µM; in data set [6] it was 16.8 µM; in data set [7] it was 1.5 µM; in data set [8], 1.9 µM. Also, in [4] (28 relative to 27), the “cytotoxicity reduced relative to 27” value came to 100 times.

In the case of `COc1ccc(CC(C#N)c2cc(OC)c(OC)c(OC)c2)cc1` (centres unmarked) [compound 17h, 3-(4-Methoxyphenyl)-2-(3,4,5-trimethoxyphenyl)propanonitrile], the IC50 is 0.0096 µM in [3]; less than 1 µM in data set [4] (read-out: cytotoxicity ED50, in at least four cell lines); 0.0075 µM in [5]; 11 µM in [2] (setting [11]); 1.6 µM in [6]; 0.0041 µM in [7]. The IC50 in [8] was 0.014 µM.

Turning to `COc1ccc(/C=C\c2cc(OC)cc(OC)c2)cc1` [15i, (Z)-1-(3,5-Dimethoxyphenyl)-2-(4-methoxyphenyl)ethene], the IC50 in [3] was 0.13 µM; in data set [4] (read-out: cytotoxicity ED50), roughly 0.1 µM; in data set [5], 0.34 µM; in data set [2] (setting [11]), 3.8 µM; in data set [6] it was 0.098 µM; in data set [7], 0.42 µM. The IC50 in data set [8] is 0.16 µM.

Regarding `COc1cc(CCc2ccc(SC)cc2)cc(OC)c1OC` [17c, 1-(4-Methylthiophenyl)-2-(3,4,5-trimethoxyphenyl)ethane], the IC50 in data set [3] was 0.15 µM; in data set [5], 0.4 µM; in data set [2] (setting [11]) it was greater than 40 µM; in data set [6] it was 1.3 µM; in [7] it was 0.24 µM; in [8] it was 0.2 µM. The “cytotoxicity (in words)” value in data set [4] is recorded as “decreased cytotoxicity”.

Turning to `COc1ccc(/C=C\c2cc(OC)c(OC)c(OC)c2)cc1` [compound 5a, (Z)-1-(4-Methoxyphenyl)-2-(3,4,5-trimethoxyphenyl)ethene], the results for the “times less cytotoxic than combretastatin A-4 (1a)” value in data set [3] (A-549), in data set [6] (MLM) and in data set [7] (SKMEL-5) were “about 20 times”, roughly 7 times and roughly 30 times, respectively. For the same molecule, the IC50 is less than 1 µM in [4] (read-out: cytotoxicity ED50), 2.2 µM in [2] (setting [12]), 2.5 µM in data set [2] (setting [11]) and 0.00026 µM in data set [7]. The “times more cytotoxic than combretastatin A-4 (1a)” value in [5] (HT-29) is on record as “approximately 140 times”; in [8] (MCF-7) it was “about 10 times”. Moreover, the “inhibition of tubulin polymerization (in words)” value in data set [2] was “strong inhibitors of tubulin polymerization”.

As to `COc1ccc(C(C#N)Cc2cc(OC)c(OC)c(OC)c2)cc1` (centres unmarked) [compound 17i, 2-(4-Methoxyphenyl)-3-(3,4,5-trimethoxyphenyl)propanonitrile], the IC50 is 11.5 µM in data set [3]; 9.4 µM in data set [5]; greater than 40 µM in data set [2] (setting [11]); 21.1 µM in [6]; 6.4 µM in [7]; 14.3 µM in data set [8]. Moreover, in data set [4], the “less cytotoxic than 8a / cytotoxicity reduced” value was 10,000 -fold.

For the molecule `COc1ccc(C(=O)c2cc(OC)c(OC)c(OC)c2)cc1` [compound 27, 3,4,4',5-Tetramethoxybenzophenone], the IC50 was determined as 0.011 µM in data set [3]; 0.013 µM in data set [5]; 7.4 µM in data set [2] (setting [11]); 0.013 µM in data set [6]; 0.012 µM in [7]; 0.015 µM in [8]. Further, the “less cytotoxic than 8a / cytotoxicity reduced” value in data set [4] is listed as “about 100 -fold”.

The values above are taken from US5430062A, “Stilbene derivatives as anticancer agents” (priority 1993, dated 1995).
